In paper PMC12564639, “Discovery of a Novel Anticoagulant Cystine Knot Peptide from Spider Venom Gland Transcriptome” (International Journal of Molecular Sciences, 2025):
Peptide text beside a SMILES is read from it.

Experiments:
[1] = tested on: murine macrophage (RAW264.7); test: Cytotoxicity (CCK-8), RAW264.7; format: cell-based; design: cytotoxicity RAW264.7: dose or concentration left out as unconfirmed; details: 24 h, n = 3
Method: The cytotoxicity of GC38 was evaluated in human embryonic kidney cells (HEK293T), human keratinocytes (HaCaT), and murine macrophage (RAW264.7) cell lines. The cells were from Kunming Cell Bank, Chinese Academy of Sciences. HEK293T and HaCaT cells were cultured in DMEM supplemented with 10% fetal bovine serum (FBS) and 1% penicillin-streptomycin, and RAW264.7 cells were maintained in RPMI 1640 containing 10% FBS and 1% penicillin–streptomycin, with all cell lines incubated at 37 °C under 5% CO2. For cytotoxicity assessment, cells were seeded at a density of 1 × 10^5 cells per well in 96-well plates and incubated for 12 h. […] After 24 h incubation, cell viability was determined using the CCK-8 assay (10 μL/well). Absorbance was measured at 450 nm using a multi-mode microplate reader (BioTek Synergy™ H1, Winooski, VT, USA). Untreated cells and cells treated with 10% DMSO served as negative and positive controls, respectively. Viability percentages were calculated relative to the untreated control. All experiments were conducted in triplicate, and data were expressed as mean ± SEM.

[2] = target: T1, Human Activated Protein C (APC-1.0) (Homo sapiens, UniProt P04070); test: APC activity by chromogenic substrate assay; format: biochemical; details: APC 0.7145 μM, S-2366 402.1 μM, PBS, 37 °C, pre-incubation 10 min, n = 3
T1 construct: purchased Enzyme Research Laboratories, Inc., South Bend, IN, USA APC-1.0
Source text: Human Activated Protein C (APC-1.0) was purchased from Enzyme Research Laboratories, Inc., South Bend, IN, USA. […] Activated Partial Thromboplastin Time (APTT) Test Kit (TC0306) was bought from Senkey Biotechnology Co., Ltd., Kunming, China. Prothrombin Time (PT) Test Kit (GMS10176) was purchased from GENMED Scientifics Inc., Shanghai, China. Streptavidin (SA) Biosensors (18-5019) were obtained from Sartorius AG, Göttingen, Lower Saxony, Germany. PBS (21-040-CVC) was bought from Corning Incorporated, Corning, NY, USA. Tween-20 (BS361B) was purchased from Biosharp Life Sciences, Hefei, Anhui, China. Trifluoroacetic acid (TFA, T818778-500ml, CAS: 76-05-1) and CaCl2 (C805225) were obtained from Macklin Biochemical Co., Ltd., Shanghai, China. L-oxidized glutathione (GSSG, V900363), Rose Bengal Dye (content 95%, CAS: 632-69-9, 330000-5G), and HEPES (V900477-500G) were purchased from Sigma-Aldrich LLC, St. Louis, MO, USA (Shanghai branch: Sigma-Aldrich Shanghai Trading Co., Ltd., Shanghai, China). […]
APC (0.7145 μM) was pre-incubated with varying concentrations of GC38 (0.1, 1 and 10 μM) in PBS at 37 °C for 10 min. […] Kinetic measurements were performed at 37 °C using a Multi-Mode Microplate Reader (BioTek Synergy™ H1, Winooski, VT, USA) with absorbance at 405 nm recorded every 10 s for 30 min. […]

T1 sequence (P04070 212-461 limits assumed): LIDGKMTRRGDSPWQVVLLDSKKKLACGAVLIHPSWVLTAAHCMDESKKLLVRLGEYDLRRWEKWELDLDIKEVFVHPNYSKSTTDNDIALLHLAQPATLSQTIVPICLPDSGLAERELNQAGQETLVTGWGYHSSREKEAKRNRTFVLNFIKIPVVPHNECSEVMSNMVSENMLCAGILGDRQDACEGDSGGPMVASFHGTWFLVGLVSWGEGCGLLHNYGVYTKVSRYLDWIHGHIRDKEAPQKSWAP
T1 sequence (P04070 43-197 limits assumed): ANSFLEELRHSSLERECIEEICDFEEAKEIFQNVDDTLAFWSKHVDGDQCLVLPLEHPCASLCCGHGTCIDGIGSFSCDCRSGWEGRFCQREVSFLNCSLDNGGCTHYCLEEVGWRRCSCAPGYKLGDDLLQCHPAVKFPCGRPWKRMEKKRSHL

## CSCC[C@@H]1NC(=O)[C@H](CC(N)=O)NC(=O)CNC(=O)CNC(=O)[C@H](Cc2c[nH]cn2)NC(=O)[C@H](CCCNC(=N)N)NC(=O)CNC(=O)[C@@H]2CSSC[C@@H]3NC(=O)[C@H](CCCNC(=N)N)NC(=O)[C@H](C)NC(=O)CNC(=O)[C@H](CCCCN)NC(=O)CNC(=O)[C@H](CO)NC(=O)[C@@H](NC(=O)CN)CSSC[C@H](NC(=O)[C@H](CSSC[C@@H](C(=O)N[C@@H](CCC(=O)O)C(=O)N[C@@H](Cc4c[nH]c5ccccc45)C(=O)N[C@@H](CC(N)=O)C(=O)N[C@@H](Cc4c[nH]c5ccccc45)C(=O)N[C@@H](CCCCN)C(=O)N[C@H](C(=O)NCC(=O)O)[C@@H](C)O)NC(=O)[C@H](CO)NC(=O)[C@H](CCCCN)NC(=O)[C@H](Cc4ccc(O)cc4)NC1=O)NC(=O)[C@H](CCCCN)NC(=O)[C@H](CO)NC(=O)[C@@H]1CCCN1C(=O)[C@H](C)NC3=O)C(=O)N[C@@H](CO)C(=O)NCC(=O)N[C@@H](CC(C)C)C(=O)N[C@@H](CO)C(=O)N2 [GC38] (HELM PEPTIDE1{G.C.S.G.K.G.A.R.C.A.P.S.K.C.C.S.G.L.S.C.G.R.H.G.G.N.M.Y.K.S.C.E.W.N.W.K.T.G}$PEPTIDE1,PEPTIDE1,2:R3-15:R3|PEPTIDE1,PEPTIDE1,9:R3-20:R3|PEPTIDE1,PEPTIDE1,14:R3-31:R3$$$V2.0)
[1]; 50 μM, serum-free medium, CCK-8, 450 nm, relative to untreated control
  cell viability RAW264.7: greater than 95%
[1]; CCK-8
  cytotoxicity RAW264.7: negligible cytotoxicity
[2]; GC38 10 μM, 405 nm, versus PBS control, mean
  activity of APC at maximum catalytic velocity (Vmax): 171%
[2]; GC38 0.1-10 μM, absorbance 405 nm every 10 s for 30 min
  APC activity, concentration dependence: enhanced APC activity in a concentration-dependent manner
